Here are results for nine compounds from US20230247992A1, “ARTHROPOD CONTROL COMPOSITION” (Firmenich SA, priority 2020, published 2023).

The test system of test [1] is Aedes aegypti. The experiment in a line: in vitro Warm Body assay, substance applied on glass Petri dish on top of the warm body (deterrence and repellence). Format: in vivo. How it is done:
(§1) The controlling effect, repellence & spatial repellence, according to the present invention is determined by testing the Warm Body assay against the yellow fever mosquito, Aedes aegypti Rockefeller strain. […] Observations of controlling efficacy were made on host-seeking females of uniform age, 5 to 10 days old selected as mentioned in the publication mentioned hereinabove. Tested hungry females had access to 10% sugar solution but were not blood-fed. Further information is provided in the accompanying examples.
(§2) The published protocol has been adapted in not manually counting the landing mosquitoes but automatically using an automatic counting software, the switch from Anopheles gambiae to A. aegypti led to a decrease of mosquitoes’ number placed in the tested cage due to the size difference (i.e. 30 mosquitoes instead of 50) and to an increase of lighting as A. aegypti is a diurnal mosquitoes (i.e. 150 lux instead of 4 lux). Further information is provided in the accompanying examples.,
(§3) The controlling effect of the compositions according to the present invention was assessed using an adapted Warm Body assay as defined in Kröber T, Kessler S, Frei J, Bourquin M, Guerin PM. 2010. An in vitro assay for testing mosquito controlling compounds employing a warm body and carbon dioxide as a behavioral activator. J Am Mosq Control Assoc. 26:381-386. In this in-vitro assay the number of mosquito landing on a warm body, simulating an attractive host treated with the tested stimuli, was measured in order to assess the repellence effect.
(§4) The published protocol has been adapted in not manually counting the landing mosquitoes but automatically using an automatic counting software, the switch from Anopheles gambiae to Aedes aegypti led to a decrease of mosquitoes’ number placed in the tested cage due to the size difference (i.e. 30 mosquitoes instead of 50) and to an increase of lighting as A. aegypti is a diurnal mosquitoes (i.e. 150 lux instead of 4 lux).
(§5) In addition, since the inventors were interested by assessing spatial repellence added or not to a deterrent effect, the substance was applied using two different technics. Whether, as in Kröber et al. (2010), both deterrent and repellent effect were investigated (i.e. similar effect than most body care applications such as lotion) and the substances was applied on a sandblasted glass Petri dish placed on top of the warm body. Whether only the spatial repellence was investigated (i.e. similar effect than most home care applications such as liquid electric dispenser) and the substance was introduced in the cage space thanks to a forced evaporation system as described in Chappuis C J-F, Niclass Y, Vuilleumier C, Starkenmann C. 2015. Quantitative Headspace Analysis of Selected Odorants from Latrines in Africa and India. Environ. Sci. Technol. 49:6134-6140.
(§6) As stated in Kröber et al. (2010), selected 10-12 days old hungry females, that had ad libitum access to 10% sugar solution but were not blood-fed, were selected for the assay.
On the sandblasted glass Petri dish covering the warm body (28.3 cm^2), 100 µL of the substances diluted at different concentrations in ethanol was applied. The number of mosquito landing on the warm body was counted for each stimuli, N,N-diethyl-3-methylbenzamide (DEET) and ethyl 3-[acetyl(butyl)amino]propanoate (IR3535) being used as benchmarks and pure ethanol as control.

The test system of test [2] is Aedes aegypti. The experiment in a line: in vitro Warm Body assay, substance introduced in the cage air by forced evaporation (spatial repellence). Format: in vivo. How it is done: as §1, §2, §3, §4, §5, §6
The forced evaporation system allows to fill the volume of the cage with stimuli tested, (2-methyl-4-oxo-3-prop-2-ynylcyclopent-2-en-1-yl) 2,2-dimethyl-3-(2-methylprop-1-enyl)cyclopropane-1-carboxylate (prallethrin) and N,N-diethyl-3-methylbenzamide (DEET) being used as benchmarks. In order to limit potential dead volumes in the cage, five flushes of the cage were made before starting the 2 minutes test during which the number of mosquito landings was counted.

Setting [3] is: 0.04% in ethanol, ethanol control 67.0±8.8 landings.
[4] abbreviates: 1% in ethanol, ethanol control 67.0±8.8 landings.
[5] abbreviates: […] in ethanol, ethanol control 67.0±8.8 landings.
[6] abbreviates: 0.0017 µg/L air, without substance 54.1±4.9.
[7] abbreviates: 0.017 µg/L air, without substance 54.1±4.9.
[8] abbreviates: 0.17 µg/L air, without substance 54.1±4.9.
Setting [9] is: 1.7 µg/L air, without substance 54.1±4.9.
The mark [10] stands for this setting: 17 µg/L air, without substance 54.1±4.9.
Setting [11] is: 0.0017 µg/L air, without substance 54.7±3.2.
The mark [12] stands for this setting: 0.0017 µg/L air, without substance 56.0±3.6.
[13] abbreviates: 0.017 µg/L air, without substance 54.7±3.2.
Where [14] appears, read: 0.017 µg/L air, without substance 56.0±3.6.
Where [15] appears, read: 0.17 µg/L air, without substance 54.7±3.2.
Where [16] appears, read: 0.17 µg/L air, without substance 56.0±3.6.
Setting [17] is: 1.7 µg/L air, without substance 54.7±3.2.
Setting [18] is: 1.7 µg/L air, without substance 56.0±3.6.
[19] abbreviates: 17 µg/L air, without substance 54.7±3.2.
Where [20] appears, read: 17 µg/L air, without substance 56.0±3.6.
Where [21] appears, read: 0.04% in ethanol, ethanol control 67.1±9.1 landings.
[22] abbreviates: 1% in ethanol, ethanol control 67.1±9.1 landings.
[23] abbreviates: […] in ethanol, ethanol control 67.1±9.1 landings.

Molecules are shown by their SMILES.

As to `OCCc1ccccc1` [2-phenylethanol], the “number of mosquitoes landing within 2 minutes on the warm body” value in the test on Aedes aegypti [1] (setting [3]) is reported as 46.0; in the test with Aedes aegypti [1] (setting [4]), 0.0; with Aedes aegypti [1] (setting [5]), 72.0. The “number of mosquitoes landing within 2 minutes on the warm body, air in the cage saturated with stimulus” value (“number … with stimulus” below) is listed as 12.0 in the test on Aedes aegypti [2] (setting [6]); 30.0 with Aedes aegypti [2] (setting [7]); 25.0 with Aedes aegypti [2] (setting [8]); 51.0 in the test with Aedes aegypti [2] (setting [9]); 30.0 in the test on Aedes aegypti [2] (setting [10]). The landing decrease in the test with Aedes aegypti [2] (highest dose tested) worked out at 41%.

In the case of `C#CCC1=C(C)C(OC(=O)C2C(C=C(C)C)C2(C)C)CC1=O` (centres unmarked) [prallethrin, (2-methyl-4-oxo-3-prop-2-ynylcyclopent-2-en-1-yl) 2,2-dimethyl-3-(2-methylprop-1-enyl)cyclopropane-1-carboxylate, reference compound], the “number … with stimulus” value turned out to be 77.0 in the test on Aedes aegypti [2] (setting [6]); 77.0 in the test with Aedes aegypti [2] (setting [11]); 77.0 with Aedes aegypti [2] (setting [12]); 66.0 in the test with Aedes aegypti [2] (setting [7]); 66.0 in the test with Aedes aegypti [2] (setting [13]); 66.0 with Aedes aegypti [2] (setting [14]). The “number … with stimulus” value in the test with Aedes aegypti [2] (setting [8]) is reported as 15.5; in the test on Aedes aegypti [2] (setting [15]), 15.5; with Aedes aegypti [2] (setting [16]) it was 15.5; in the test on Aedes aegypti [2] (setting [9]) it was 3.0; in the test with Aedes aegypti [2] (setting [17]), 3.0; in the test on Aedes aegypti [2] (setting [18]), 3.0. The “number … with stimulus” value in the test with Aedes aegypti [2] (setting [10]), in the test with Aedes aegypti [2] (setting [19]) and in the test on Aedes aegypti [2] (setting [20]) was 1.0 throughout.

As to `CCCCCCC1CCCC(=O)O1` (centres unmarked) [6-hexyloxan-2-one], the entries for the “number of mosquitoes landing within 2 minutes on the warm body” value with Aedes aegypti [1] (setting [21]), in the test with Aedes aegypti [1] (setting [22]) and with Aedes aegypti [1] (setting [23]) were 13.0, 5.0 and 74.0, respectively. Also, the “number … with stimulus” value with Aedes aegypti [2] (setting [12]) is 31.0; in the test on Aedes aegypti [2] (setting [14]) it was 28.0; in the test on Aedes aegypti [2] (setting [16]), 4.0; in the test on Aedes aegypti [2] (setting [20]), 5.0. Further, in the test on Aedes aegypti [2] (dose of 0.17 µg/L of air), the “landings in 2 minutes” value is “less than five”.

Consider `CCC=CCC1C(=O)CCC1CC(=O)OC` (centres unmarked) [methyl 2-(3-oxo-2-pent-2-enylcyclopentyl)acetate], for which the “number of mosquitoes landing within 2 minutes on the warm body” value in the test with Aedes aegypti [1] (setting [3]) came out at 2.0; in the test on Aedes aegypti [1] (setting [4]), 1.0; in the test with Aedes aegypti [1] (setting [5]), 54.0. For the same compound, the “number … with stimulus” value is 10.0 with Aedes aegypti [2] (setting [7]), 4.0 in the test with Aedes aegypti [2] (setting [8]) and 15.0 with Aedes aegypti [2] (setting [9]).

On to `CC(C)C(=O)OCCc1ccccc1` [2-phenylethyl 2-methylpropanoate], for which the results for the “number of mosquitoes landing within 2 minutes on the warm body” value in the test on Aedes aegypti [1] (setting [3]), with Aedes aegypti [1] (setting [4]) and in the test with Aedes aegypti [1] (setting [5]) were 55.0, 2.0 and 90.0, respectively.

Consider `COC(C)(C)[C@H]1CC=C(C)CC1` [(4R)-4-(2-methoxypropan-2-yl)-1-methylcyclohexene], for which the figures for the “number of mosquitoes landing within 2 minutes on the warm body” value in the test on Aedes aegypti [1] (setting [3]), in the test with Aedes aegypti [1] (setting [4]) and in the test on Aedes aegypti [1] (setting [5]) were 18.0, 3.0 and 52.0, respectively. The landings per minute in the test with Aedes aegypti [1] (concentration of 0.04%) was ~ 10 landings per minute.

For `CC1=CC[C@@H]2[C@H](C1)C2(C)C` [(1S,6R)-3,7,7-trimethylbicyclo[4.1.0]hept-3-ene], the results for the “number of mosquitoes landing within 2 minutes on the warm body” value in the test on Aedes aegypti [1] (setting [3]), in the test on Aedes aegypti [1] (setting [4]) and in the test with Aedes aegypti [1] (setting [5]) were 55.0, 8.0 and 59.0, respectively.

For `CCN(CC)C(=O)c1cccc(C)c1` [N,N-diethyl-3-methylbenzamide, reference compound], the “number of mosquitoes landing within 2 minutes on the warm body” value with Aedes aegypti [1] (0.04% in ethanol, ethanol control 59.3±6.9 landings) turned out to be 5.1; in the test on Aedes aegypti [1] (setting [3]) it was 5.1; with Aedes aegypti [1] (setting [21]), 5.1; in the test on Aedes aegypti [1] (1% in ethanol, ethanol control 59.3±6.9 landings) it was 2.6; in the test on Aedes aegypti [1] (setting [4]) it was 2.6; in the test on Aedes aegypti [1] (setting [22]) it was 2.6. Further, the “number of mosquitoes landing within 2 minutes on the warm body” value with Aedes aegypti [1] ([…] in ethanol, ethanol control 59.3±6.9 landings) amounted to 44.9; with Aedes aegypti [1] (setting [5]), 44.9; in the test on Aedes aegypti [1] (setting [23]) it was 44.9. In addition, the “number … with stimulus” value in the test on Aedes aegypti [2] (setting [6]) was 35.0; in the test on Aedes aegypti [2] (setting [11]) it was 35.0; with Aedes aegypti [2] (setting [12]) it was 35.0; in the test with Aedes aegypti [2] (setting [7]) it was 28.0; with Aedes aegypti [2] (setting [13]), 28.0; in the test with Aedes aegypti [2] (setting [14]), 28.0. Moreover, the “number … with stimulus” value is given as 24.0 in the test on Aedes aegypti [2] (setting [8]); 24.0 with Aedes aegypti [2] (setting [15]); 24.0 in the test on Aedes aegypti [2] (setting [16]); 1.5 with Aedes aegypti [2] (setting [9]); 1.5 with Aedes aegypti [2] (setting [17]); 1.5 in the test with Aedes aegypti [2] (setting [18]). Besides, the “number … with stimulus” value in the test with Aedes aegypti [2] (setting [10]), in the test on Aedes aegypti [2] (setting [19]) and in the test on Aedes aegypti [2] (setting [20]) was 3.0 each time.

Turning to `CC(=O)OC1CC(C)CCC1C(C)C` (centres unmarked) [5-methyl-2-propan-2-ylcyclohexyl] acetate], the “number of mosquitoes landing within 2 minutes on the warm body” value came to 16.0 with Aedes aegypti [1] (setting [21]), 10.0 in the test on Aedes aegypti [1] (setting [22]) and 22.0 with Aedes aegypti [1] (setting [23]). The “number … with stimulus” value came out at 31.5 in the test with Aedes aegypti [2] (setting [12]); 24.0 with Aedes aegypti [2] (setting [14]); 17.5 in the test on Aedes aegypti [2] (setting [16]); 9.0 in the test with Aedes aegypti [2] (setting [18]); 25.0 in the test on Aedes aegypti [2] (setting [20]).
